In assay [1] the test system is human Edg-1 receptors. Briefly: Intracellular calcium (FLIPR) assay, HTC cells expressing Edg-1. Format: cell-based. Particulars: Edg-1 relative to other Edg receptors, inhibition (Table 2). As for the experimental part: (§1) The compounds were tested in HTC cells expressing human Edg-1 receptors. […] The compounds were tested in this recombinant system first, and subsequently tested in cell lines expressing Edg-1 (in addition to other Edg receptors).
(§2) […] receptors such as Edg-1, couple to calcium effector pathways, and result in increases in intracellular calcium following receptor activation (An, 1998, J. Cell Biochem. Supp 30-31:147-157). This biological response lends itself to a very efficient, high-throughput screen using a Fluorescence Imaging Plate Reader (FLIPR; Molecular Devices, Sunnyvale, Calif.). The FLIPR system is a real-time, cell-based assay system with continuous fluorescence detection using a cooled CCD camera. The FLIPR system was used to develop an Edg-1 receptor screen. Rat hepatoma cells stably expressing Edg-1/3i3 chimera or Edg-1 and Gqi were plated on 384-well plates and loaded with a calcium dye loading kit (Molecular Devices, Sunnyvale, Calif.) for 1 hour at room temperature. Cells were then placed on the FLIPR^384 (Molecular Devices, Sunnyvale, Calif.) and excited by an argon laser at 488 nm. The data for the entire 384-well plate was updated every second. An integrated robotic pipettor allowed for simultaneous compound addition into each individual well in the plate.
A general note: A change in cytosolic calcium serves as a functional read-out for many receptors and channels.

For a further assay, the target named is T1, Edg-2 (Homo sapiens, UniProt Q92633).
T1 construct: expressed in transfected cells; host or cells: HTC rat hepatoma cells
Briefly: Intracellular calcium (FLIPR) assay, HTC cells expressing Edg-2. It is filed as cell-based. Conditions: Table 2; LPA-stimulated.

A further assay addresses T2, Edg-3 (Homo sapiens, UniProt Q99500).
T2 construct: expressed in transfected cells; host or cells: HTC rat hepatoma cells
The assay can be described thus: Intracellular calcium (FLIPR) assay, HTC cells expressing Edg-3. Conditions: Table 2; S1P-stimulated. Format: cell-based.

A further assay deals with Edg-4 (Homo sapiens, UniProt Q9HBW0). Briefly: Intracellular calcium (FLIPR) assay, HTC cells expressing Edg-4. Particulars: Table 2; LPA-stimulated. Format: cell-based.
A further assay has as its target T3, Edg-5 (Homo sapiens, UniProt O95136).
T3 construct: expressed in transfected cells; host or cells: HTC rat hepatoma cells
The assay can be described thus: Intracellular calcium (FLIPR) assay, HTC cells expressing Edg-5. Particulars: Table 2; S1P-stimulated. It is filed as cell-based.

Another assay deals with T4, Edg-6 (Homo sapiens, UniProt O95977).
T4 construct: expressed in transfected cells; host or cells: HTC rat hepatoma cells
T4 sequence (O95977 1-384): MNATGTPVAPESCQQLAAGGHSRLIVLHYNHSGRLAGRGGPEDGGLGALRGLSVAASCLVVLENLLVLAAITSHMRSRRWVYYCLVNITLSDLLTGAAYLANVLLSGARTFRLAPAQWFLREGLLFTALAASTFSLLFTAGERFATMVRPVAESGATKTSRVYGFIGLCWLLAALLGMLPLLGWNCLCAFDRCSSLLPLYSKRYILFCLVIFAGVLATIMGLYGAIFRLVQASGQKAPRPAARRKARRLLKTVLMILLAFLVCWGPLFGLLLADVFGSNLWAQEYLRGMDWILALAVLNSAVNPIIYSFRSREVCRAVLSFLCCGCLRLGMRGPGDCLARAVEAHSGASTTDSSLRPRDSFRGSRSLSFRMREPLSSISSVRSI
The assay can be described thus: Intracellular calcium (FLIPR) assay, HTC cells expressing Edg-6. Format: cell-based. Conditions: Table 2; S1P-stimulated.

The target of a further assay is T5, Edg-7 (Homo sapiens, UniProt Q9UBY5).
T5 construct: expressed in transfected cells; host or cells: HTC rat hepatoma cells
T5 sequence (Q9UBY5 1-353): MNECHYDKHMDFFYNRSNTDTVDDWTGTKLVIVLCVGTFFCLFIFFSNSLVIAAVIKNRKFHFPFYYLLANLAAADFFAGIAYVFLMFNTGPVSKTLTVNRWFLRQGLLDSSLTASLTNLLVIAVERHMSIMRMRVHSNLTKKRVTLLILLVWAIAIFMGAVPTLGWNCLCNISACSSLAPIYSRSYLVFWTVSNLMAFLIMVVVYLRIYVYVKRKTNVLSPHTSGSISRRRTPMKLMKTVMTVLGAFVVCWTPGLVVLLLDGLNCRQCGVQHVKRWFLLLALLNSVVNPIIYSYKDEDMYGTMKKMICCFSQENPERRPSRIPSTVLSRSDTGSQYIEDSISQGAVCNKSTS
Briefly: Intracellular calcium (FLIPR) assay, HTC cells expressing Edg-7. It is filed as cell-based. Particulars: Table 2; LPA-stimulated.

In a further assay the target is T6, Edg-8 (Homo sapiens, UniProt Q9H228).
T6 construct: expressed in transfected cells; host or cells: HTC rat hepatoma cells
The assay can be described thus: Intracellular calcium (FLIPR) assay, HTC cells expressing Edg-8. It is filed as cell-based. Particulars: Table 2; S1P-stimulated.

In assay [2] the target is human Edg-1 receptors (Homo sapiens, UniProt P21453). Briefly: Intracellular calcium (FLIPR) assay, HTC cells expressing Edg-1. It is filed as cell-based. Further details: Edg 1 IC50 μM; fused on or other part: in the chimera reading: the third intracellular loop (i3) of Edg-3 (S1PR3) in place of Edg-1's own. As for the experimental part:
as §1, §2

The subject of the next assay is murine CD4 T cells. Briefly: Murine CD4 T cell chemotactic response to exodus-2. Format: cell-based. The protocol:
To assess this modulation and to test the effects of Edg-1 agonists and antagonists on this effect, murine CD4 T cells chemotactic responses to exodus-2 were tested in the presence of S1P and the Edg-1 agonist 104. These experiments were performed according to the migration and invasion assay protocols described in Section 7.12, below.
The effects of Edg-1 antagonists on S1P regulation of the chemotactic response to exodus-2 were also assessed. This experiment was performed according to the migration and invasion assay protocols described in Section 7.12, below. […] Thus, these Edg-1 antagonists can antagonize both aspects of the regulation by S1P of exodus-2-mediated chemotaxis.
(§3) Cells were plated in a 24 well format using Fluoroblok filter insert plates ([…] pore size) or Fluoroblok matrigel coated filter insert plates (Becton Dickinson, San Diego, Calif.). The assay was a modified Boyden Chamber assay in which a cell suspension (1×10^5 cells/ml) was prepared in serum free medium and added to the top chamber. LPA or S1P (doses ranged from 0.1-10 μM in serum free medium) was added to the bottom chamber. Following a 20-24 hour incubation period, the number of cells migrating or invading into the lower chamber was quantitated by transferring the filter insert into a fresh 24-well plate containing 4 μg/ml calcein AM (Molecular Probes, Sunnyvale, Calif.) in Hank's Balanced Salt Solution and staining for one hour.
(§4) Detection was via fluorescent readout at 450 nm excitation/530 nm emission using a fluorimeter. The level of fluorescence correlated with cell number.

In assay [3] the test system is human peripheral blood mononuclear cells. Briefly: Migration of human peripheral blood mononuclear cells. It is filed as cell-based. Particulars: chemoattractant; FIG. 9, 13. The protocol: (§5) S1P is a strong chemoattractant to human PBMCs. […] Several migration assays were performed to test this hypothesis and to determine the effect of Edg-1 agonists and antagonists on S1P mediated chemotaxis. The migration assays were performed according to the protocol described in Section 7.12, below. The results of theses assays are presented in FIG. 6, FIG. 7, FIG. 8, FIG. 9 and FIG. 13.
as §3, §4
Human PBMCs are isolated from the buffy coats of healthy donors from the Stanford Blood Center. […]

In a further assay the test system is mouse T cells. The assay can be described thus: Mouse T cell migration in Transwell chambers with matrigel. Conditions: stimulant in bottom chamber; S1P at high concentrations; FIG. 14. It is filed as cell-based. The protocol: To further elucidate the role of the Edg-1 receptor in lymphocyte trafficking, migration of mouse T cells was analyzed in both in vitro and in vivo models. Migration of mouse T cells was first tested in Transwell chambers (Costar, Cambridge, Mass.) with polycarbonate fibers having a pore width of 8 μm, separated by a layer of matrigel. Stimulants S1P or exodus-2 were separately added to the bottom chamber. The effects of exodus-2 were tested alone, with S1P, and with S1P and Edg-1 antagonists 101 and 102.

The test system of assay [4] is mouse splenic CD4 T cells. The assay can be described thus: Lymphocyte migration in mouse dorsal air-pouch model. Conditions: CD4 T cells treated ex vivo, given intraperitoneally, lavage after 24 hours; S1P 1 μM; FIG. 15. Format: in vivo. The protocol:
To test migration of mouse T cells in vivo, the ability of exodus-2 to attract mouse lymphocytes was assessed in the mouse dorsal air-pouch model. In these experiments, 0.5 ml 1 μM exodus-2 was introduced into a dorsal air-pouch produced by injecting 5 ml of filtered air subcutaneously. Mouse splenic CD4 T cells were fluorescently labeled with FM-DiI (Molecular Probes, Inc., Eugene, Oreg.), then treated with S1P (1 μM), 102, or 104. The treated CD4T cells were introduced into the peritoneal cavity. After 24 hours, lavage (1 ml) from the dorsal air pouch was assayed for fluorescence.

Assay [5] concerns human umbilical vein endothelial cells. Briefly: Trans-matrigel chemotaxis / invasion assay with HUVECs (modified Boyden chamber). Format: cell-based. Particulars: HUVECs, trans-matrigel; FIG. 10. The protocol: In addition to Edg-1, other Edg receptors are also implicated in S1P stimulated chemotaxis, including Edg-3 and Edg-6. To assess the relative roles of the Edg-1 receptors and Edg-3 receptors in S1P stimulated chemotaxis, the ability of S1P to evoke trans-matrigel chemotaxis was tested in the presence of the Edg-1 antagonist 101, the Edg-3 antagonist 301, and the combination of 101 and 301. These experiments were performed according to the migration and invasion assay protocols described in Section 7.12, below. The Edg-3 antagonist 301, 3-Methyl-2-phenyl-quinoline-4-carboxylic acid 4-fluoro-benzylamide, is extensively described in co-pending U.S. application Ser. No. 10/390,426, which is incorporated by reference in its entirety. 301 is identified as compound 101 in U.S. application Ser. No. 10/390,426. Further, 301 is commercially available from Specs (The Netherlands) as compound number AK-968/12971392.
as §5, §3, §4

Where [6] appears, read: Table 1, Edg-1 modulators, read-out: IC50.

Read-outs that look alike come from different tables or passages of the source.

T2 sequence (Q99500 whole entry): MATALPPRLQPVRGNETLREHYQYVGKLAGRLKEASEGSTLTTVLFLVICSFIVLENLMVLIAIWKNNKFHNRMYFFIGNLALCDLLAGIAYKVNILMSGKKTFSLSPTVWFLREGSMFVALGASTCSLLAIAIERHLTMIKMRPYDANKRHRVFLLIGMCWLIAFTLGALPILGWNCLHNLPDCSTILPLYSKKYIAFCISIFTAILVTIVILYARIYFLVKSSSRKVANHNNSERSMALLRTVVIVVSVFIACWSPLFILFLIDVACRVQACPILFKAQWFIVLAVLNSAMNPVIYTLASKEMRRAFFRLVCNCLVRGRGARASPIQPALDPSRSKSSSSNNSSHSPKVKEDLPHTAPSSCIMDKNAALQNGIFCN
Edg-4, sequence (Q9HBW0 1-340 limits assumed): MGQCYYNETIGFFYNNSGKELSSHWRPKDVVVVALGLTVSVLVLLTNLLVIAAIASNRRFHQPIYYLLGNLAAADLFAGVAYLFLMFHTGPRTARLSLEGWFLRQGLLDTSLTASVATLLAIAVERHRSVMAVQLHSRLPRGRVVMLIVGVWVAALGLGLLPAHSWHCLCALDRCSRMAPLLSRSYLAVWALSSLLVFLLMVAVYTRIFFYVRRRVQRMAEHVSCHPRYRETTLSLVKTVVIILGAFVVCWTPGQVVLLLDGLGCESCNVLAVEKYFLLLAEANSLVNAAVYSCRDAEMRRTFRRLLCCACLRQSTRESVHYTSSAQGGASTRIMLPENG
T3 sequence (O95136 whole entry): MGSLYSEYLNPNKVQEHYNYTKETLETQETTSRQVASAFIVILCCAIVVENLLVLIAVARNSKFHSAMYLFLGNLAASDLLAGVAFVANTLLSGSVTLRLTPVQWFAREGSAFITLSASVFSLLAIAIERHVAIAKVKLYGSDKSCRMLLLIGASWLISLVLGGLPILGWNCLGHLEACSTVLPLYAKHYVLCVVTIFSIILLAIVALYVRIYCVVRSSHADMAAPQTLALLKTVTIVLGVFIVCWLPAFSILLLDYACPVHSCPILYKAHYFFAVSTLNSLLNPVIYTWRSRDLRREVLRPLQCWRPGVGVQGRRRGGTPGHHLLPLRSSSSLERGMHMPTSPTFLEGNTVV
T6 sequence (Q9H228 whole entry): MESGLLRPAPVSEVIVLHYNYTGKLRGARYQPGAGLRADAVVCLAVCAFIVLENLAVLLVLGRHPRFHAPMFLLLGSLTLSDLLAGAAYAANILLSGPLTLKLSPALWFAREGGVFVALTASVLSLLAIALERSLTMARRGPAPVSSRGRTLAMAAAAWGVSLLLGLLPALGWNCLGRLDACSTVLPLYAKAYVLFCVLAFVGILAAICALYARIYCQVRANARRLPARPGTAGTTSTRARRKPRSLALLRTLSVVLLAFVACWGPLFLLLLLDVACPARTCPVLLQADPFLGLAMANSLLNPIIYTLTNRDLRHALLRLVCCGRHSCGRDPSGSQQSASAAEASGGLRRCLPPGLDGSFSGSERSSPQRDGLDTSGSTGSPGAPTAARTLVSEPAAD
T1 sequence (Q92633 whole entry): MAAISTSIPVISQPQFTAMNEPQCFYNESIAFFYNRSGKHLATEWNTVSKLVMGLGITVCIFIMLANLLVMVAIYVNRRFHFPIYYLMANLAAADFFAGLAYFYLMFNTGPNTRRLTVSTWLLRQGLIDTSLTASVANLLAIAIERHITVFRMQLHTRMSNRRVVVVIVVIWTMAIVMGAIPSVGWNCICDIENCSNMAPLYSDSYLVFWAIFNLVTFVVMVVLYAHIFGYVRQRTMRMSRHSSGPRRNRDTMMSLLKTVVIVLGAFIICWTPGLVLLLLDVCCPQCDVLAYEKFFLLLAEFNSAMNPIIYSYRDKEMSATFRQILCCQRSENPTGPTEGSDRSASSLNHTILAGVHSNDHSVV

In the case of `COc1cc2c(cc1OC)[C@H]1CN3CCc4cc(OC)c(OC)cc4[C@H]3CN1CC2` [Compound 103], the “Fold Selectivity” value in the assay with human Edg-1 receptors [1] is recorded as more than 27.0 Fold. In addition, the IC50 at Edg-2, at Edg-3, at Edg-4, on Edg-5, on Edg-6 and at Edg-7 was more than 20 µM throughout. In addition, the 50% inhibitory concentration (IC50) (in general, the concentration that gives 50% inhibition) at Edg-8 is more than 20 µM; on human Edg-1 receptors [2] (Table 2, inhibition of S1P response, read-out: Edg 1 IC50) it was 0.74 µM.
With `CCCCCCCCc1ccc(CCC(N)(CO)CO)cc1` [FTY720, reference compound], in the assay on murine CD4 T cells (high concentrations of S1P, FIG. 12), the “effect on S1P-mediated desensitization of the chemotactic response to exodus-2” value is “reverse S1P-mediated desensitization”. In addition, in the assay on murine CD4 T cells (moderate concentrations of S1P, FIG. 12), the “effect on S1P-mediated stimulation of the chemotactic response to exodus-2” value is recorded as “inhibit S1P-mediated stimulation”.
`O=C(c1cccnc1)N1N=C(c2ccc(F)cc2)CC1(O)C(F)(F)F` (centres unmarked) [Compound 112]: the IC50 on human Edg-1 receptors [2] (setting [6]) is 5.92 µM.
For `CCCCCCCCCCCCC/C=C/[C@@H](O)[C@@H](N)COP(=O)(O)O` [Compound S1P, sphingosine-1-phosphate, reference compound], in [3], the “migration of human peripheral blood mononuclear cells” value was “attracts human PMBCs in a dose dependent manner”. For the same molecule, in the assay on murine CD4 T cells (low and high concentrations desensitize, moderate stimulate, FIG. 11), the “effect on chemotaxis of murine CD4 T cells to exodus-2” value was “bell-shaped dose dependant response curve”. For the same molecule, the “stimulation of T cell migration by stimulant alone” value in the assay on mouse T cells is “do not stimulate T cell migration”. The “migration of treated lymphocytes to exodus-2 in dorsal air-pouch” value in assay [4] was “desensitizes the lymphocytes to attraction by exodus-2”.
For `O=C(c1ccccc1F)N1N=C(C(F)(F)F)CC1(O)c1ccc(Cl)cc1` (centres unmarked) [Compound 113], the IC50 at human Edg-1 receptors [2] (setting [6]) amounted to 6.02 µM.
Consider `Nc1ccc(C(=O)N2N=C(c3ccccc3)CC2(O)C(F)(F)F)cc1` (centres unmarked) [Compound 108], for which, on human Edg-1 receptors [2] (setting [6]), the IC50 is 3.56 µM.
On to `Nc1ccc(C(=O)N2N=C(C(F)(F)F)CC2(O)c2ccc(Br)cc2)cc1` (centres unmarked) [Compound 110], for which, on human Edg-1 receptors [2] (setting [6]), the IC50 came to 4.58 µM.
On the same count and under the same terms, under `O=C(c1cccnc1)N1N=C(C(F)(F)F)CC1(O)c1ccc(Cl)cc1` (centres unmarked) [Compound 105] stands 1.29 µM; under `O=C(c1ccccc1)N1N=C(c2ccccc2)CC1(O)C(F)(F)F` (centres unmarked) [Compound 111], 5.08 µM; under `CCc1ccc(C2=NN(C(=O)c3cccnc3)C(O)(C(F)(F)F)C2)cc1` (centres unmarked) [Compound 106], 1.74 µM.
In the case of `Nc1ccc(C(=O)N2N=C(c3ccc(F)cc3)CC2(O)C(F)(F)F)cc1` (centres unmarked) [Compound 109], the IC50 at human Edg-1 receptors [2] (setting [6]) stood at 3.94 µM.
Still for that read-out and setting: in the case of `O=C(c1cccnc1)N1N=C(c2ccccc2)CC1(O)C(F)(F)F` (centres unmarked) [Compound 107] it was 3.51 µM.
On to `Cc1c(-c2ccccc2)nc2ccccc2c1C(=O)NCc1ccc(F)cc1` [Compound 301, 3-Methyl-2-phenyl-quinoline-4-carboxylic acid 4-fluoro-benzylamide, reference compound], for which the “inhibition of S1P-stimulated chemotaxis” value in [5] was “inhibit S1P-stimulated chemotaxis”.

B1: exodus-2: cytokine, chemoattractant for lymphocytes (protein, UniProt O00585 24-134, looked up)
C-C motif chemokine 21: SDGGAQDCCLKYSQRKIPAKVVRSYRKQEPSLGCSIPAILFLPRKRSQAELCADPKELWVQQLMQHLDKTPSPQKPAQGCRKDRGASKTGKKGKGSKGCKRTERSQTPKGP
Regarding B1, the “stimulation of T cell migration by stimulant alone” value in the assay with mouse T cells was “does stimulate T cell migration”.

These data come from patent US20040147562A1, “Methods of treating conditions associated with an EDG-1 receptor” (priority 2002, published 2004).
